Laboratory results reported in ChEMBL document CHEMBL3885881, “DrugMatrix”.

Organism: Rattus norvegicus
Assay: DrugMatrix - Regimen: Daily Repeat
Assay type: toxicity, organism-based, Sprague-Dawley
Design: regimen Daily Repeat, gender Male, age 6-8 weeks
Conditions: in vivo, po, 3 mg/kg, route oral GAVAGE, dose level Low, vehicle .5 % CMC; for ABSOLUTE BASOPHIL / ABSOLUTE EOSINOPHIL / ABSOLUTE LYMPHOCYTE / ABSOLUTE MONOCYTE / ABSOLUTE SEGMENTED NEUTROPHIL / BASOPHIL / EOSINOPHIL / ERYTHROCYTE COUNT / HEMATOCRIT / HEMOGLOBIN / LEUKOCYTE COUNT / LYMPHOCYTE / MEAN CORPUSCULAR HEMOGLOBIN / MEAN CORPUSCULAR HEMOGLOBIN CONCENTRATION / MEAN CORPUSCULAR VOLUME / MONOCYTE / NEUTROPHIL / NUCLEATED RED BLOOD CELLS / PLATELET COUNT: tissue Blood; for ALANINE AMINOTRANSFERASE / ALBUMIN / ALKALINE PHOSPHATASE / ASPARTATE AMINOTRANSFERASE / BLOOD UREA NITROGEN / CARBON DIOXIDE / CHLORIDE / CHOLESTEROL / CREATINE PHOSPHOKINASE / CREATININE / GLUCOSE / LACTATE DEHYDROGENASE / LIPASE / PHOSPHORUS / POTASSIUM / SODIUM / TOTAL BILIRUBIN / TOTAL PROTEIN / URIC ACID: tissue Plasma

C=CC[C@@H]1/C=C(\C)C[C@H](C)C[C@H](OC)[C@H]2O[C@@](O)(C(=O)C(=O)N3CCCC[C@H]3C(=O)O[C@H](/C(C)=C/[C@@H]3CC[C@@H](O)[C@H](OC)C3)[C@H](C)[C@@H](O)CC1=O)[C@H](C)C[C@@H]2OC [TACROLIMUS ANHYDROUS]
ABSOLUTE BASOPHIL (72 h, time 3 day): 0 CELLS/uL
ABSOLUTE EOSINOPHIL (72 h, time 3 day): 115.33 CELLS/uL
ABSOLUTE LYMPHOCYTE (72 h, time 3 day): 12942.67 CELLS/uL
ABSOLUTE MONOCYTE (72 h, time 3 day): 191 CELLS/uL
ABSOLUTE SEGMENTED NEUTROPHIL (72 h, time 3 day): 1684.33 CELLS/uL
BASOPHIL (72 h, time 3 day): 0%
EOSINOPHIL (72 h, time 3 day): 0.67%
ERYTHROCYTE COUNT (72 h, time 3 day): 5.73 x10E6/uL
HEMATOCRIT (72 h, time 3 day): 36.53%
HEMOGLOBIN (72 h, time 3 day): 13.97 G/DL
LEUKOCYTE COUNT (72 h, time 3 day): 14.93 x10E3/uL
LYMPHOCYTE (72 h, time 3 day): 86.67%
MEAN CORPUSCULAR HEMOGLOBIN (72 h, time 3 day): 24.37 pg
MEAN CORPUSCULAR HEMOGLOBIN CONCENTRATION (72 h, time 3 day): 38.27 G/DL
MEAN CORPUSCULAR VOLUME (72 h, time 3 day): 63.77 fL
MONOCYTE (72 h, time 3 day): 1.33%
NEUTROPHIL (72 h, time 3 day): 11.33%
NUCLEATED RED BLOOD CELLS (72 h, time 3 day): 0 /100WBC
PLATELET COUNT (72 h, time 3 day): 1252.33 x10E3/uL
ALANINE AMINOTRANSFERASE (72 h, time 3 day): 50.67 u/L
ALBUMIN (72 h, time 3 day): 4.1 G/DL
ALKALINE PHOSPHATASE (72 h, time 3 day): 348.33 u/L
ASPARTATE AMINOTRANSFERASE (72 h, time 3 day): 75.67 u/L
BLOOD UREA NITROGEN (72 h, time 3 day): 16.33 mg/dL
CARBON DIOXIDE (72 h, time 3 day): 31.67 mmol/L
CHLORIDE (72 h, time 3 day): 99.33 MEQ/L
CHOLESTEROL (72 h, time 3 day): 79 mg/dL
CREATINE PHOSPHOKINASE (72 h, time 3 day): 194.33 u/L
CREATININE (72 h, time 3 day): 0.26 mg/dL
GLUCOSE (72 h, time 3 day): 149.33 mg/dL
LACTATE DEHYDROGENASE (72 h, time 3 day): 133.33 u/L
LIPASE (72 h, time 3 day): 9.33 u/L
PHOSPHORUS (72 h, time 3 day): 12.63 mg/dL
POTASSIUM (72 h, time 3 day): 6.77 MEQ/L
SODIUM (72 h, time 3 day): 144.97 MEQ/L
TOTAL BILIRUBIN (72 h, time 3 day): 0.2 mg/dL
TOTAL PROTEIN (72 h, time 3 day): 5.83 G/DL
URIC ACID (72 h, time 3 day): 1.67 mg/dL
ABSOLUTE BASOPHIL (120 h, time 5 day): 0 CELLS/uL
ABSOLUTE EOSINOPHIL (120 h, time 5 day): 0 CELLS/uL
ABSOLUTE LYMPHOCYTE (120 h, time 5 day): 15415.33 CELLS/uL
ABSOLUTE MONOCYTE (120 h, time 5 day): 188 CELLS/uL
ABSOLUTE SEGMENTED NEUTROPHIL (120 h, time 5 day): 1663.33 CELLS/uL
BASOPHIL (120 h, time 5 day): 0%
EOSINOPHIL (120 h, time 5 day): 0%
ERYTHROCYTE COUNT (120 h, time 5 day): 5.95 x10E6/uL
HEMATOCRIT (120 h, time 5 day): 36.57%
HEMOGLOBIN (120 h, time 5 day): 14.1 G/DL
LEUKOCYTE COUNT (120 h, time 5 day): 17.27 x10E3/uL
LYMPHOCYTE (120 h, time 5 day): 89.33%
MEAN CORPUSCULAR HEMOGLOBIN (120 h, time 5 day): 23.77 pg
MEAN CORPUSCULAR HEMOGLOBIN CONCENTRATION (120 h, time 5 day): 38.57 G/DL
MEAN CORPUSCULAR VOLUME (120 h, time 5 day): 61.53 fL
MONOCYTE (120 h, time 5 day): 1%
NEUTROPHIL (120 h, time 5 day): 9.67%
NUCLEATED RED BLOOD CELLS (120 h, time 5 day): 0 /100WBC
PLATELET COUNT (120 h, time 5 day): 1336 x10E3/uL
ALANINE AMINOTRANSFERASE (120 h, time 5 day): 51.33 u/L
ALBUMIN (120 h, time 5 day): 4.23 G/DL
ALKALINE PHOSPHATASE (120 h, time 5 day): 303 u/L
ASPARTATE AMINOTRANSFERASE (120 h, time 5 day): 80 u/L
BLOOD UREA NITROGEN (120 h, time 5 day): 17 mg/dL
CARBON DIOXIDE (120 h, time 5 day): 27.67 mmol/L
CHLORIDE (120 h, time 5 day): 101.67 MEQ/L
CHOLESTEROL (120 h, time 5 day): 81 mg/dL
CREATINE PHOSPHOKINASE (120 h, time 5 day): 231 u/L
CREATININE (120 h, time 5 day): 0.2 mg/dL
GLUCOSE (120 h, time 5 day): 164 mg/dL
LACTATE DEHYDROGENASE (120 h, time 5 day): 171.67 u/L
LIPASE (120 h, time 5 day): 9.33 u/L
PHOSPHORUS (120 h, time 5 day): 13.2 mg/dL
POTASSIUM (120 h, time 5 day): 6.36 MEQ/L
SODIUM (120 h, time 5 day): 144.37 MEQ/L
TOTAL BILIRUBIN (120 h, time 5 day): 0.2 mg/dL
TOTAL PROTEIN (120 h, time 5 day): 6.13 G/DL
URIC ACID (120 h, time 5 day): 1.73 mg/dL
